Measurements from ChEMBL document CHEMBL1201862, “PubChem BioAssay data set” (2004).
Calls of active or inactive are those of the source.

Tests used:
[1] = target: FAD-linked sulfhydryl oxidase ALR (Homo sapiens, UniProt P55789); test: ALR-catalysed DTT oxidation blockers – biochemical, H2O2 detection, luminescence, cherry-pick, dose response (AID 493248)
[2] = NIH-3T3 fibroblast cytotoxicity, dose response, cytotoxicity control, cell-based, fluorescence, Alamar Blue, secondary assay (AID 2327); format: functional;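 also: NIH-3T3 mouse fibroblasts cultured with fluconazole at 8 µg/mL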
[3] = fluconazole-exposed Candida albicans growth modulators – fluorescence, retest, confirmation (AID 2467); format: functional, cell-based
Streptokinase A = target: T1, Streptokinase A (Streptococcus pyogenes serotype M1, UniProt P10520); test: viability-normalized secreted streptokinase activity reduction – plasminogen activation absorbance, OD405, dose response (AID 1914); format: functional, Streptococcus pyogenes M1 GAS;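 also: secreted streptokinase activity via plasminogen activation per viability signal from cell pellet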
T1 sequence (P10520 whole entry): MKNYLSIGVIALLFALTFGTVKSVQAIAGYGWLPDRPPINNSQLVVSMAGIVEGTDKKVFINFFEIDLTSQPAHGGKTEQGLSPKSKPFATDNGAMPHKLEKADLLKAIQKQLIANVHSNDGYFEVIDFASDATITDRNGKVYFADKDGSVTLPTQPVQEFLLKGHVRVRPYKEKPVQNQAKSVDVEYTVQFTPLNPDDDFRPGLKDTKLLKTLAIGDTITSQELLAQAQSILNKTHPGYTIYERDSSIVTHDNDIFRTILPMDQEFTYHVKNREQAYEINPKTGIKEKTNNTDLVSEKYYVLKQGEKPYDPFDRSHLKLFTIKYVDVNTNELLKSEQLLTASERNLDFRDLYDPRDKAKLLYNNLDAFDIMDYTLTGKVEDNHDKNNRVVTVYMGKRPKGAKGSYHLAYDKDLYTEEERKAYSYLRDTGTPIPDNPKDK

Streptococcus = test: GAS UMAA2166 growth inhibition – luminescence, BacTiterGlo, counter-screen for streptokinase expression inhibitor project, dose response (AID 1915); format: functional, organism-based;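 also: potency for reduction of bacterial viability or growth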
[4] = test system: Streptococcus sp. 'group A'; test: Streptococcus pyogenes SK(-)GAS viability under kanamycin – luminescence, BacTiterGlo, confirmation, counter-screen for streptokinase expression inhibitor project, dose response (AID 1900); format: functional, organism-based
[5] = Luminescence Cell-Based Dose Confirmation HTS to Identify Activators of 5'UTR Stem-Loop Driven Alpha-Synuclein mRNA Translation in H4 Neuroglioblastoma Cells. [Related pubchem assays: 1829 (Project Summary), 1814 (Primary HTS)]; format: functional
[6] = Luminescence Cell-Based Dose Response HTS to Identify Activators of Luciferase Translation or Activity in H4 […] Cells. [Related pubchem assays: 1829 (Project Summary), 1814 (Primary HTS)]; format: functional
H4 = test: Luminescence Cell-Based Dose Response HTS to Identify Activators of 5'UTR Stem-Loop Driven Prion Protein mRNA Translation in H4 Neuroglioblastoma Cells. [Related pubchem assays: 1829 (Project Summary), 1814 (Primary HTS)]; format: functional; conditions: Homo sapiens
cells = format: functional
Cytochrome P450 2C19 = Cytochrome P450 2C19 (Homo sapiens, UniProt P33261); test: Cytochrome panel assay with activity outcomes. Panel member name: p450-cyp2c19 Compounds with AC50 equal or less than 10 uM are considered active; format: functional
Cytochrome P450 2C19, sequence (P33261 whole entry): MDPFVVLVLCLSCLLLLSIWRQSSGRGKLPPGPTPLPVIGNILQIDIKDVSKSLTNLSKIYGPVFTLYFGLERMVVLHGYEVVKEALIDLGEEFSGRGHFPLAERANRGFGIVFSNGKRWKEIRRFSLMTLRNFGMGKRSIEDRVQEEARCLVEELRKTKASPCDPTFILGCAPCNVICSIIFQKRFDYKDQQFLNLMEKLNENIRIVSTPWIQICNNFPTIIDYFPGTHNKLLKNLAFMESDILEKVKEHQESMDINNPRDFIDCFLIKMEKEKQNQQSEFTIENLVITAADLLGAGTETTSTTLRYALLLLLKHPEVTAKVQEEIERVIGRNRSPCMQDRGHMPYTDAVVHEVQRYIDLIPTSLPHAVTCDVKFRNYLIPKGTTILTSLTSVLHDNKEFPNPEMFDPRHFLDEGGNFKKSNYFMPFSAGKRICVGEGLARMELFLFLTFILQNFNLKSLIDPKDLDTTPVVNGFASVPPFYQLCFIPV

[7] = target: T2, Heat shock factor protein 1 (Mus musculus, UniProt P38532); test: decrease of HSF1-responsive luciferase luminescence – cell-based, NIH3T3, dose retest, confirmation (AID 2382); format: functional;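 also: NIH3T3 fibroblasts with HSF1-driven luciferase reporter stressed by proteasome inhibitor MG132; luminescence from HSF1-driven luciferase expression after 8 hours of MG132 stress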
T2 sequence (P38532 whole entry): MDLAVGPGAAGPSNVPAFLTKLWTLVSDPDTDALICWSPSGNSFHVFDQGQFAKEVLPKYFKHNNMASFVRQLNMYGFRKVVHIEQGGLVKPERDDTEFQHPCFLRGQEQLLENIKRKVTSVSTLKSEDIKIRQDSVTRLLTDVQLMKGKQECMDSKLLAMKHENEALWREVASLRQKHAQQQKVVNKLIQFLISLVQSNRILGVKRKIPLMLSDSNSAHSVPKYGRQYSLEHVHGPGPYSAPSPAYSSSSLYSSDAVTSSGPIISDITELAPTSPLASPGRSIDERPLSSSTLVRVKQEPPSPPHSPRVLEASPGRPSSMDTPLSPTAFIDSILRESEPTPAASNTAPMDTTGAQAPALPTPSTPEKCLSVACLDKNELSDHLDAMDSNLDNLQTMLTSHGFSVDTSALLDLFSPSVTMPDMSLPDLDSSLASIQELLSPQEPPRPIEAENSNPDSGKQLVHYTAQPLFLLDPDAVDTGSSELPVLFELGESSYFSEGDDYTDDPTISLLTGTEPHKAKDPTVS

[8] = Luminescence Cell-Based Dose Retest to Confirm Inhibitors of Cancer Stem Cells. [Related pubchem assays (depositor defined):AID2717, AID2721]; format: functional; conditions: Homo sapiens
[9] = NIH3T3 cell viability loss – ATP luminescence, mouse fibroblasts, counter-screen, dose response (AID 2010); format: functional, cell-based;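 also: cells exposed to compound for about 90 hours before reading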
[10] = Trypanosoma cruzi growth suppression in host cells – NIH3T3 host cells, beta-gal luminescence, confirmation (AID 2044); format: functional, cell-based;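 also: intracellular parasites grown in NIH/3T3 mouse fibroblasts as host cells; luminescent beta-galactosidase reporter signal from transgenic T. cruzi replicating inside host cells; inhibitors lower the luminescence signal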

FAD-linked sulfhydryl oxidase ALR, sequence (P55789 whole entry): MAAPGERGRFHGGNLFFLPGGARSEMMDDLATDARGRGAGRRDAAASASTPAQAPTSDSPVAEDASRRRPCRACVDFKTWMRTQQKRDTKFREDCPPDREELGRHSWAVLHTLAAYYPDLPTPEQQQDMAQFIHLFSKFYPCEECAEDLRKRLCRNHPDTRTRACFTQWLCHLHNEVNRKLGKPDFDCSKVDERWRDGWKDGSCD

Cc1ccc(-n2c(-c3ccc(Cl)cc3)n[nH]c2=S)c(C)c1
AC50 [1]: 2080 nM (active)

CC(=O)NCCc1c(C)n(Cc2ccccc2)c2ccccc12
AC50 [1]: 3020 nM (active)

O=C(NC1CCCCC1)C(c1ccc2ncccc2c1)N(Cc1ccc(F)cc1)C(=O)c1ccc2c(c1)OCCO2 (stereo not drawn)
EC50 [2]: > 150 µM (inconclusive) | EC50 [3]: > 38 µM (not active)

O=C(NC(=S)Nc1ccc(Cl)cn1)C(c1ccccc1)c1ccccc1
EC50 (Streptokinase A): > 150 µM (not active) | EC50 (Streptococcus): 6.57 µM (active) | EC50 [4]: 3.85 µM (active)

Cc1cc(C(=O)CSc2nnc(-c3cccnc3)n2-c2ccccc2)c(C)n1CC1CCCO1 (stereo not drawn)
EC50 [5]: 8.04 µM (active) | EC50 [6]: 18.7 µM (active) | EC50 (H4): > 60 µM (not active)

N#Cc1ccc(-c2nc3cc(Cl)ccc3c(=O)n2O)cc1
EC50 [2]: > 160 µM (inconclusive) | EC50 [3]: 1.63 µM (active)

COC(=O)COc1ccc2c(-c3cccc([N+](=O)[O-])c3)cc(=O)oc2c1
IC50 (cells): 2.9 µM (active) | AC50 (Cytochrome P450 2C19): 251 nM (inconclusive)

Cc1occc1C(=O)Nc1nnc(C(F)(F)F)s1
EC50 [2]: > 150 µM (inconclusive) | EC50 [3]: 1.95 µM (active)

COc1ccc(C(=O)Nc2cccc(-c3ccc(N4CCOCC4)nn3)c2)cc1
EC50 (Streptokinase A): > 150 µM (not active) | EC50 (Streptococcus): > 150 µM (not active) | EC50 [4]: > 150 µM (not active)

CCOC(=O)C1(Cc2cccc(OC)c2)CCCN(C(=O)CCN2CCCO2)C1 (stereo not drawn)
EC50 [5]: 11.1 µM (active) | EC50 [6]: 9.65 µM (active) | EC50 (H4): 2 µM (active)

CC1CC(N(C(=O)c2ccco2)c2ccccc2)c2ccccc2N1 (stereo not drawn)
AC50 [1]: 465 nM (active)

CCOc1ccc(N(CC(=O)NC2CCCCC2)C(=O)CCC(=O)Nc2nc(C)cs2)cc1
EC50 [7]: > 195 µM (not active)

NC(=O)c1ccsc1NC(=O)CCS(=O)(=O)c1ccccc1
EC50 [2]: > 150 µM (inactive) | EC50 [3]: > 38 µM (not active)

CCN(CCNC(=O)c1cccc(N2CCCC2=O)c1)c1ccccc1
AC50 [1]: 508 nM (active)

Cc1ccc(Oc2cc(C)nc(-c3ccccc3O)n2)cc1
EC50 [5]: 12.9 µM (active) | EC50 [6]: 15 µM (active) | EC50 (H4): 44 µM (inconclusive)

COc1ccc(OC(=O)c2cc3cc(Cl)ccc3oc2=O)cc1
IC50 (cells): 7.33 µM (active)

CCCCNC(=O)C1CCN(Cc2ccc(OCc3ccccc3)cc2)CC1
EC50 [5]: 18.6 µM (active) | EC50 [6]: 70.9 µM (active) | EC50 (H4): 63.1 µM (active)

c1ccc2c(c1)CCN(c1nc3ccccc3n3cnnc13)C2
EC50 [5]: 0.123 µM (active) | EC50 [6]: 26.4 µM (active) | EC50 (H4): 29.1 µM (active)

Cc1ccc(S(=O)(=O)N(C)CC(=O)N2CC(C)OC(C)C2)cc1 (stereo not drawn)
EC50 (Streptokinase A): > 150 µM (not active) | EC50 (Streptococcus): > 150 µM (not active) | EC50 [4]: > 150 µM (not active)

CCOCCCNC(=O)c1cc(C)nn1-c1ccccc1
EC50 [7]: > 195 µM (not active)

CCOc1ccccc1N1CCN(CC(O)COC2CCCc3ccccc32)CC1 (stereo not drawn)
EC50 [2]: > 160 µM (inactive) | EC50 [3]: 1.02 µM (active)

COc1cc(-c2csc(CCn3nc(C)cc3C)n2)cc(OC)c1OC
AC50 [1]: 59 nM (active)

CCC1(C)Cc2ccccc2-c2c1c(=O)n(Cc1ccccc1)c1nnnn21 (stereo not drawn)
EC50 (Streptokinase A): 4.04 µM (active) | EC50 (Streptococcus): > 150 µM (not active)

O=C(c1ccccc1)N1CCN(c2ncnc3c(-c4ccccc4)nsc23)CC1
EC50 [5]: 33.1 µM (active) | EC50 [6]: > 120 µM (not active) | EC50 (H4): 17 µM (active)

CCCCn1c(N)nc2ccccc21
EC50 [7]: > 195 µM (not active)

CCc1noc(C)c1C(=O)Nc1cc(Cl)ccc1N1CCCC1
AC50 [1]: 1150 nM (active)

CCOC(=O)c1ccc(Nc2ncccc2[N+](=O)[O-])cc1
EC50 [5]: 0.12 µM (active) | EC50 [6]: 1.82 µM (active) | EC50 (H4): 0.801 µM (active)

COc1ccccc1-c1c[nH]nc1-c1ccc(OCc2ccc(F)cc2)cc1O
EC50 (Streptokinase A): 76.6 µM (active) | EC50 (Streptococcus): 24.5 µM (active) | EC50 [4]: 7.62 µM (active)

CCOc1ccc(C(=O)Nc2nnc(C3=COCCO3)o2)cc1
IC50 (cells): 3.65 µM (active)

Nc1nn2cc(-c3ccc(Br)cc3)nc2c2ccccc12
EC50 [6]: 0.177 µM (active) | EC50 [2]: 109 µM (active) | EC50 (H4): 2.38 µM (active) | EC50 [3]: 1.24 µM (active)

O=C(CCCc1c[nH]c2ccccc12)N1CCCCCC1
EC50 [5]: 8.16 µM (active) | EC50 [6]: 7.67 µM (active) | EC50 (H4): 34.2 µM (active)

O=C(Nc1ccc(-c2csc(Nc3ccc(Cl)cc3)n2)cc1)c1cc([N+](=O)[O-])cc(C(F)(F)F)c1
EC50 (Streptokinase A): > 150 µM (not active) | EC50 (Streptococcus): 7.28 µM (active) | AC50 [8]: 1.32 µM (active) | EC50 [4]: 8.5 µM (active)

COc1cccc(NC(=O)C(=O)N2CCOCC2)c1
EC50 [5]: 4.35 µM (active) | EC50 [6]: 78.3 µM (active) | EC50 (H4): 24.3 µM (active)

Cc1ccc(NC(NC(=O)c2ccccn2)C(Cl)(Cl)Cl)cc1 (stereo not drawn)
AC50 [1]: 731 nM (active)

COc1ccc(/C=C/C(=O)NC(=S)NNC(=O)c2cc(OC)c(OC)c(OC)c2)cc1OC
EC50 (Streptokinase A): > 150 µM (not active) | EC50 (Streptococcus): 17.8 µM (active) | EC50 [4]: 3.3 µM (active)

CCNc1nc(NCC)nc(N/N=C/c2ccc(N(C)C)cc2)n1
AC50 [1]: 2330 nM (active)

Cc1ccc(-c2nn(-c3ccccc3)cc2/C=C2\SC(=S)N(CCCCCC(=O)O)C2=O)o1
EC50 [5]: 12.6 µM (active) | EC50 [6]: 16 µM (active) | EC50 (H4): 13.9 µM (active)

O=C(CCN1CCOCC1)c1ccc(Cl)cc1
IC50 (cells): 22.5 µM (active) | EC50 [9]: > 60 µM (not active) | EC50 [10]: 1.74 µM (active)

COc1ccc(NC(=O)c2cc3cccc(OC)c3o/c2=N\c2ccc(C(=O)O)cc2)cc1OC
EC50 (Streptokinase A): > 150 µM (not active) | EC50 (Streptococcus): 20.2 µM (active) | EC50 [4]: 2.38 µM (active)

COc1ccc(/C=N/NC(=O)c2cc[nH]n2)cc1CSc1ccccn1
AC50 [1]: 680 nM (active)

O=C(N/N=C/c1cccc(O)c1)N/N=C/c1cccc(O)c1
AC50 [1]: 797 nM (active)
